The source of these data is patent US5968487A (L'Oreal, priority 1996, dated 1999).

This assay concerns the target T1, human melanocyte tyrosinase (Homo sapiens, UniProt P14679).
T1 construct: endogenous in cells; host or cells: cultured human melanocytes (Triton X-100 / ultrasound extract after 3 days' culture with the compound)
T1 sequence (P14679 19-529): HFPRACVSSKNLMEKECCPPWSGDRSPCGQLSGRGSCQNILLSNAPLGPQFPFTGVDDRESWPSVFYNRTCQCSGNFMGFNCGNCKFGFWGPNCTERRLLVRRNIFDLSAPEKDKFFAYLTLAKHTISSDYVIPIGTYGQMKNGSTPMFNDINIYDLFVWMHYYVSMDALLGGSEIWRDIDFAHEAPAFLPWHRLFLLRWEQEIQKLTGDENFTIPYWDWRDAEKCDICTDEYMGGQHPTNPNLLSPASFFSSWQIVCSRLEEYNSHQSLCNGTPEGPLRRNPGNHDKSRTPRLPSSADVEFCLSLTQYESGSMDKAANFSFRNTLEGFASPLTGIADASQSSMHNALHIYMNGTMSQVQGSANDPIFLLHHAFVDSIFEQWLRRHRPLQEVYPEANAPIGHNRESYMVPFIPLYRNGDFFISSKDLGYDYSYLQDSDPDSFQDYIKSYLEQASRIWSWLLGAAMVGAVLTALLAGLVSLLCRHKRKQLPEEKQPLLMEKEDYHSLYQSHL
The experiment in a line: dopa-oxidase activity of human melanocyte tyrosinase after 3-day culture of melanocytes with the compound. Format: cell-based. Particulars: human melanocytes cultured three days with compound; lysate + 5 mM L-dopa, absorbance at 475 nm (dopachrome), 25° C., 60 minutes; read-out: IC50, concentration of active product required to obtain a 50% inhibition of the production of melanin.

Procedure: After three days, the melanocytes were "trypsinized" in a mixture of trypsin/0.05% EDTA/0.02% in a phosphate buffer (50 mM at pH 6.8), washed three times in phosphate buffer containing 1% (w/v) Triton X-100 and subjected to ultrasound. After centrifugation, samples were taken and mixed with 5 mM L-dopa in phosphate buffer. The tyrosinase activity was evaluated by spectrophotometry by measuring the increase in the absorbance at 475 nm due to the formation of dopachrome from 5 mM dopa. The absorbance was read on a microplate reader at 25° C. for 60 minutes.
The activity of the cellular tyrosinase is measured relative to a standard range prepared with commercial tyrosinase.
The value of IC50, i.e., the concentration of active product required to obtain a 50% inhibition of the production of melanin, is determined.

Take `O=C1NC(C(=O)OCc2cc(=O)c(O)co2)CS1` (stereo not shown) [5-hydroxy-4-oxo-4H-pyran-2-ylmethyl 2-oxothiazolidine-4-carboxylate]: the IC50 was in the range of 200 to 300 µM.
